Structures can show the parent of a compound that is named as a salt. Active and inactive are the calls of the source.
Experiments:
[1] = biological target: DNA dC->dU-editing enzyme APOBEC-3A (Homo sapiens, UniProt P31941); test: APOBEC3A DNA deaminase inhibitors, dose response, biochemical (AID 504722); assay type: functional
[2] = biological target: DNA dC->dU-editing enzyme APOBEC-3G (Homo sapiens, UniProt Q9HC16); test: Dose Response confirmation of small molecule APOBEC3G DNA Deaminase Inhibitors via a fluorescence-based single-stranded DNA deaminase assay. [Related pubchem assays (depositor defined):AID493012, AID493028]; assay type: functional
Sequence of DNA dC->dU-editing enzyme APOBEC-3G (Q9HC16 whole entry): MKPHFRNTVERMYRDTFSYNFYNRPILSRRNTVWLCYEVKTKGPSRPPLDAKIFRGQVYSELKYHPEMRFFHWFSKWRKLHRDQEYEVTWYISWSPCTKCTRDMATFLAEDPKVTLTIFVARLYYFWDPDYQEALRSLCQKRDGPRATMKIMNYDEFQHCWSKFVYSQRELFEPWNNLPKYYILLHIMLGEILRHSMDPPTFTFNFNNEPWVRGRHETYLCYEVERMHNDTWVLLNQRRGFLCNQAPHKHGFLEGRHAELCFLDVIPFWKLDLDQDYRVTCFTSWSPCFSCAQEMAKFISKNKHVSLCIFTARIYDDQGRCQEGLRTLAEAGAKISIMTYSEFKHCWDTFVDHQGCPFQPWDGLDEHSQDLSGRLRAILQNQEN

[3] = A Cell Based Secondary Assay To Explore Cytotoxicity of Compounds that Sensitize Mycobacterium Tuberculosis to Beta-Lactam Antibiotics.; assay type: functional
[4] = biological target: 5-hydroxytryptamine receptor 2A (Mus musculus, UniProt P35363); assay type: functional, cell-based;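 note: CHO-K1 cells with tagged receptor and beta-arrestin; agonist potency measured as compound-induced activation of the receptor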
Sequence of 5-hydroxytryptamine receptor 2A (P35363 whole entry): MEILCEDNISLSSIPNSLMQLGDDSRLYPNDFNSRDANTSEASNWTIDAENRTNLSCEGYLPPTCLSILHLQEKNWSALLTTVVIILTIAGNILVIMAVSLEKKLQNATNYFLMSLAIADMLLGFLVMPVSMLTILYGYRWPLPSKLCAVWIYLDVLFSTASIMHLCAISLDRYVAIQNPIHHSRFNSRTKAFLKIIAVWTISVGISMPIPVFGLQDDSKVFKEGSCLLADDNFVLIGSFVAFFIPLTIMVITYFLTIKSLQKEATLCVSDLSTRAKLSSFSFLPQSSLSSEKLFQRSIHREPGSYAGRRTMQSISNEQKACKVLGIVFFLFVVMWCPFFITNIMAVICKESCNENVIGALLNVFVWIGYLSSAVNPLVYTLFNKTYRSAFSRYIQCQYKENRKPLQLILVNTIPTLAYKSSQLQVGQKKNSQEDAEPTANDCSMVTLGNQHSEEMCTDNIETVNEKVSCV

[5] = biological target: Mu-type opioid receptor (Homo sapiens, UniProt P35372); assay type: functional, cell-based;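 note: U2OS cells with beta-arrestin recruitment to OPRM1 by beta-gal complementation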
Sequence of Mu-type opioid receptor (P35372 whole entry): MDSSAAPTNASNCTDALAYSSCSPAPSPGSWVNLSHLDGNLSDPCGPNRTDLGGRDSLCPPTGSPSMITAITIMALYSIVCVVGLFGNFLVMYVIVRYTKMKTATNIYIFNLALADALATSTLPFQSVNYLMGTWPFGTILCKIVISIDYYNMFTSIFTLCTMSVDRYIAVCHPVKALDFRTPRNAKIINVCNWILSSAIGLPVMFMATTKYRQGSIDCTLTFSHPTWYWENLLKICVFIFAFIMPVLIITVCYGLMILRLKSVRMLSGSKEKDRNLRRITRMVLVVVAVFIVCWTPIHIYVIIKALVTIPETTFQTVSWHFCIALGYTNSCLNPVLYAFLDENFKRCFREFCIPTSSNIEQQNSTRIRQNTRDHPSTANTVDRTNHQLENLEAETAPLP

[6] = biological target: Voltage-gated inwardly rectifying potassium channel KCNH2 (Homo sapiens, UniProt Q12809); details: Potency;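 note: confirmatory quantitative high-throughput screen measuring inhibition of hERG channel activity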
Sequence of Voltage-gated inwardly rectifying potassium channel KCNH2 (Q12809 whole entry): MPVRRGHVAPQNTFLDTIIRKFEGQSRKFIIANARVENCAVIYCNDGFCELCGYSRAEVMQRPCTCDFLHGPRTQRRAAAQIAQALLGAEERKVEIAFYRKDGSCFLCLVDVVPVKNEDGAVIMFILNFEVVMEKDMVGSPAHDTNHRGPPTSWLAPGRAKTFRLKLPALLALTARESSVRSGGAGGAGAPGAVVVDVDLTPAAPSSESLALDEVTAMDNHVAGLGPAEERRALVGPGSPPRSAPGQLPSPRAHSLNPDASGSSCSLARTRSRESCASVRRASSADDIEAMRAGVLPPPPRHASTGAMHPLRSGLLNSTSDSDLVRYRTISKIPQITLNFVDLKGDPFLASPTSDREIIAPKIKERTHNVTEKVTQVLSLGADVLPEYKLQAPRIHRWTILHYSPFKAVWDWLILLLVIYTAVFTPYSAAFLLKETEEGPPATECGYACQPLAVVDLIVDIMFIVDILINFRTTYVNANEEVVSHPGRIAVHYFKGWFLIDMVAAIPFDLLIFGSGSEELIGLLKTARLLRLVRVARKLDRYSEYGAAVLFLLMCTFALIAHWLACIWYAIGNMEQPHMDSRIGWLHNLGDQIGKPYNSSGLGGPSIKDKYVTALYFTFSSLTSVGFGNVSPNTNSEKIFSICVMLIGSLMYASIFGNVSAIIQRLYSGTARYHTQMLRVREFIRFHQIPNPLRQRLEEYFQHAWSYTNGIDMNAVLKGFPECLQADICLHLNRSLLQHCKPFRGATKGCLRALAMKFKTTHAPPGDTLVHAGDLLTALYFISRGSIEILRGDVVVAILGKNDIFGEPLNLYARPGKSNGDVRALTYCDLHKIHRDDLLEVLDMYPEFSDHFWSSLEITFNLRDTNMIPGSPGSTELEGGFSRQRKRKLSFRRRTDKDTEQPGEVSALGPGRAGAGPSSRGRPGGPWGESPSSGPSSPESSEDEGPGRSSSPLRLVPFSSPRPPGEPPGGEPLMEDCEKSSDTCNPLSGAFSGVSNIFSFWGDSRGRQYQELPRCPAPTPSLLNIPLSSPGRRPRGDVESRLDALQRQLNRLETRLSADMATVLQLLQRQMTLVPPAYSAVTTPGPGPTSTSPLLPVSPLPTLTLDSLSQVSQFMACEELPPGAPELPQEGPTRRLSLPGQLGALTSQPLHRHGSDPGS

[7] = biological target: T1, Serine/threonine-protein phosphatase (Candida dubliniensis (strain CD36 / CBS 7987 / NCPF 3949 / NRRLY-17841) (Yeast), UniProt B9W6M3); test: calcineurin pathway inhibitors in yeast reporter, dose response, S. cerevisiae, CDRE-lacZ, luminescence, secondary (AID 2388); assay type: functional, cell-based;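 note: yeast reporter cells carrying a calcineurin-responsive lacZ construct stimulated with calcium chloride; luminescent beta-galactosidase reporter signal in whole cells rather than isolated phosphatase activity; potency for inhibition where a drop in reporter signal means calcineurin blockade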
T1 sequence (B9W6M3 whole entry): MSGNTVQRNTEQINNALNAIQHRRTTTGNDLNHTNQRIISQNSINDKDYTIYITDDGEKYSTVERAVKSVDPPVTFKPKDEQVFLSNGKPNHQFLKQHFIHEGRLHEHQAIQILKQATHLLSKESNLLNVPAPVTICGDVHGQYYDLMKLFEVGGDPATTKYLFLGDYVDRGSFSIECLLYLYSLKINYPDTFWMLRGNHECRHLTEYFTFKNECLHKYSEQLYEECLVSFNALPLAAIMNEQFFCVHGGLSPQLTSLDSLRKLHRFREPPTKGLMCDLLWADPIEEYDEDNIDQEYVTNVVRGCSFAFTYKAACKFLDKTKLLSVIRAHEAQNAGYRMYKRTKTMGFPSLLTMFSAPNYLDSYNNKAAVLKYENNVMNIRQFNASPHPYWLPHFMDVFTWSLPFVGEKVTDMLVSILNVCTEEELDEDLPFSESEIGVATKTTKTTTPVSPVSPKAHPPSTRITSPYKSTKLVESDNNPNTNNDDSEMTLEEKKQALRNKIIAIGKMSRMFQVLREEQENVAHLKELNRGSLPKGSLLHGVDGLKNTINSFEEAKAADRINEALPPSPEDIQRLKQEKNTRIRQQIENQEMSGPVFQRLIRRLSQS

[8] = C. albicans growth with fluconazole, confirmation, fluorescence, retest (AID 2467); assay type: functional, cell-based
[9] = NIH-3T3 fibroblast cytotoxicity, dose response, cytotoxicity control, cell-based, fluorescence, Alamar Blue, secondary assay (AID 2327); assay type: functional;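 note: NIH-3T3 mouse fibroblasts cultured with fluconazole at 8 µg/mL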
[10] = microbe, parasite or virus in culture; assay type: functional; details: Mycobacterium tuberculosis
[11] = biological target: ATP-dependent molecular chaperone HSP82 (Candida albicans (strain WO-1) (Yeast), UniProt C4YTQ8); test: loss of DOC-induced GRE-beta-galactosidase reporter signal, dose response, Hsp90 inhibitor project, S. cerevisiae, luminescence (AID 2400); assay type: functional, cell-based;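 note: beta-galactosidase luminescence from glucocorticoid response element reporter as proxy for Hsp90 function; inhibitor potency where signal loss means Hsp90 inhibition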
Sequence of ATP-dependent molecular chaperone HSP82 (C4YTQ8 whole entry): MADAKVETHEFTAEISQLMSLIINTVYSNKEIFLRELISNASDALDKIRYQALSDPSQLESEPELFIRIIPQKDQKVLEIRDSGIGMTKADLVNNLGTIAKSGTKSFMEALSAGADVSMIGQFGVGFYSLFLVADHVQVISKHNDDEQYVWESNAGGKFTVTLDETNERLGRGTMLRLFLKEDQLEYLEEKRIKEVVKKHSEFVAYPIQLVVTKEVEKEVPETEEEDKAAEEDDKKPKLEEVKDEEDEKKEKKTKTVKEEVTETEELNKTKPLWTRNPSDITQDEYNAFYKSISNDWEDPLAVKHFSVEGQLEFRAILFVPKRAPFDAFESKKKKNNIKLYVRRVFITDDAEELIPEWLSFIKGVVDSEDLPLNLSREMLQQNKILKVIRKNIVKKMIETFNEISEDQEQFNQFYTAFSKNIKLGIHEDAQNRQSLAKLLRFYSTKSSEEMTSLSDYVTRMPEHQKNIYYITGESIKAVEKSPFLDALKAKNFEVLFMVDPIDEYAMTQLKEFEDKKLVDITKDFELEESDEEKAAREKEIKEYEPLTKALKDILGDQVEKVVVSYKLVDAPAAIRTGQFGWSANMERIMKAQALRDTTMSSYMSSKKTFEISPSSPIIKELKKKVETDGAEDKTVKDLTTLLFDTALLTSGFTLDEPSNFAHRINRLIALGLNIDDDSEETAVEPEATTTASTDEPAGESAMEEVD

[12] = biological target: T2, Type-1 angiotensin II receptor (Homo sapiens, UniProt P30556); test: AT1 receptor antagonists, dose response, selectivity assay for APJ receptor antagonist project, cell-based, uHTS hits (AID 463214); assay type: functional;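 note: antagonist potency against angiotensin II stimulated AT1 response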
T2 sequence (P30556 whole entry): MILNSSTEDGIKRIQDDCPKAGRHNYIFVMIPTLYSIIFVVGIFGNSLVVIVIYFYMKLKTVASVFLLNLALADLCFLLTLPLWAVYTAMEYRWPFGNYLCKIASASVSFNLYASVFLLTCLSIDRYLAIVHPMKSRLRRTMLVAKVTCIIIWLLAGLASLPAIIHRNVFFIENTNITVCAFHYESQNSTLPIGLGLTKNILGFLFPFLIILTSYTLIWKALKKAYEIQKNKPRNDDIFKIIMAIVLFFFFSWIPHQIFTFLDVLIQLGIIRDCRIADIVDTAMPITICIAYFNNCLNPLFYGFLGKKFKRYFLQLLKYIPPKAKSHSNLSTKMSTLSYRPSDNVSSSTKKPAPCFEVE

[13] = biological target: T3, Beta-galactosidase (Escherichia coli, UniProt Q8VNN2); test: PubChem AID 485352; assay type: functional
T3 sequence (Q8VNN2 whole entry): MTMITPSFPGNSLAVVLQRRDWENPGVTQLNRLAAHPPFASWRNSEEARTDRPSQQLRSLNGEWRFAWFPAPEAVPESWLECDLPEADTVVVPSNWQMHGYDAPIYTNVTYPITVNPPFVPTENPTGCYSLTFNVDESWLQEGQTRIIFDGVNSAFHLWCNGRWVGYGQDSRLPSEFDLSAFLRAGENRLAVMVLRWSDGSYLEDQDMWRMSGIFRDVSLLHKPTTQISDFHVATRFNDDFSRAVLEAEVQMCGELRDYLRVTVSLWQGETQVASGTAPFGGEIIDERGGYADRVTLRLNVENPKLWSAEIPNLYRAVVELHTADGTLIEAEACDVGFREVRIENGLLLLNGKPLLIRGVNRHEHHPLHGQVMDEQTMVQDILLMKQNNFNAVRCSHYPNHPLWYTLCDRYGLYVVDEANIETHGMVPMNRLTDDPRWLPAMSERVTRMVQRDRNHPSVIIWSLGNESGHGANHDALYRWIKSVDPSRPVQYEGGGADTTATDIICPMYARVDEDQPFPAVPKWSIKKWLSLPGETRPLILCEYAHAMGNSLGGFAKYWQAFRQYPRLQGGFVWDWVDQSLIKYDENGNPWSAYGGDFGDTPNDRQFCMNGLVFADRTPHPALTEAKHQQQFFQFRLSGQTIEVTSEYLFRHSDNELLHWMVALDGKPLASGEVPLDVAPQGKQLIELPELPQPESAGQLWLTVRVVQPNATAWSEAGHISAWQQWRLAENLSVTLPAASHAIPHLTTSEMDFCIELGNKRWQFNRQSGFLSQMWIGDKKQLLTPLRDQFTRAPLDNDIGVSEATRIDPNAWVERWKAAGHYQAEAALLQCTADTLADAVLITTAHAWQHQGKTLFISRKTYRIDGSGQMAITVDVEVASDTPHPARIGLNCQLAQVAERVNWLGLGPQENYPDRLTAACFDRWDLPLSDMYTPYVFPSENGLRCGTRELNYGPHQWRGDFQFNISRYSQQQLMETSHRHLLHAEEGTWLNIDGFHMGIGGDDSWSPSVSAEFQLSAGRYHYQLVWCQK

[14] = inhibitors of firefly luciferase expression or activity, dose response, H4 neuroglioma cells, luminescence (AID 1990); assay type: functional, cell-based
[15] = biological target: T3, Beta-galactosidase; test: beta-galactosidase enzyme inhibitors and activators, dose response, artefact control for CCR6 antagonist project, biochemical, E. coli enzyme, set 3 (AID 504712); assay type: functional
[16] = inhibitors of SNCA 5'UTR-driven reporter translation, confirmation, H4 neuroglioma cells, luminescence (AID 1988); assay type: functional, cell-based
[17] = Luminescence Cell-Based Dose Response HTS to Identify Inhibitors of 5'UTR Stem-Loop Driven Prion Protein mRNA Translation in H4 Neuroglioblastoma Cells. [Related pubchem assays: 1827 (Project Summary), 1813 (Primary HTS)]; assay type: functional
[18] = intracellular Trypanosoma cruzi inhibitors in host cells – cell-based, plate reader, cherry-pick samples, set 3, dose response (AID 651818); assay type: functional;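 note: compounds incubated with infected cells for about four days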
[19] = HEp-2 cell cytotoxicity, dose response, cytotoxicity control for RSV inhibitor project, HTS (AID 2410); assay type: functional; details: human respiratory syncytial virus
[20] = tested on: Streptococcus sp. 'group A'; test: growth inhibition of control SK(-) GAS strain, dose response, counter-screen for streptokinase expression inhibitor project, luminescence, kanamycin, BacTiterGlo, confirmation (AID 1900); assay type: functional, organism-based
[21] = biological target: T4, Streptokinase A (Streptococcus pyogenes serotype M1, UniProt P10520); test: S. pyogenes streptokinase expression inhibitors, potency, dose response, plasminogen activation absorbance, OD405 (AID 1914); assay type: functional, Streptococcus pyogenes M1 GAS;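 note: secreted streptokinase activity via plasminogen activation per viability signal from cell pellet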
T4 sequence (P10520 whole entry): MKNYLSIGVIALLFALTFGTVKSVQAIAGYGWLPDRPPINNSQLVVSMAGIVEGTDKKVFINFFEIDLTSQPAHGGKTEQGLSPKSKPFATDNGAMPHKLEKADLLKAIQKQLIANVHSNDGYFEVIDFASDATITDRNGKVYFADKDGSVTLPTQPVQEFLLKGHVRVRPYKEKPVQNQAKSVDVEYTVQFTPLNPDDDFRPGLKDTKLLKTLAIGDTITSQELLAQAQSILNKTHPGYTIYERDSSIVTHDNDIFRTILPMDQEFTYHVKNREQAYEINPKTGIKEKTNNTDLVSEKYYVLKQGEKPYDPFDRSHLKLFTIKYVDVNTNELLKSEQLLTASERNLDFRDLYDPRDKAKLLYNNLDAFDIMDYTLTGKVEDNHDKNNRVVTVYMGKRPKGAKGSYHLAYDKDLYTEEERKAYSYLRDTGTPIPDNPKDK

[22] = cytotoxicity toward NIH3T3 fibroblasts, dose response, counter-screen, cell-based, ATP luminescence, mouse fibroblasts (AID 2010); assay type: functional;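 note: cells exposed to compound for about 90 hours before reading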
[23] = inhibitors of intracellular T. cruzi replication, confirmation, NIH3T3 host cells, beta-gal luminescence (AID 2044); assay type: functional, cell-based;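 note: intracellular parasites grown in NIH/3T3 mouse fibroblasts as host cells; luminescent beta-galactosidase reporter signal from transgenic T. cruzi replicating inside host cells; inhibitors lower the luminescence signal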
[24] = tested on: Streptococcus; test: Group A Streptococcus viability loss, dose response, counter-screen for streptokinase expression inhibitor project, luminescence, BacTiterGlo (AID 1915); assay type: functional, organism-based;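 note: potency for reduction of bacterial viability or growth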
[25] = biological target: T5, Nuclear receptor subfamily 0 group B member 1 (Homo sapiens, UniProt P51843); assay type: functional, cell-based;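 note: HEK293T cells transfected with SF-1 and DAX-1 plus StAR promoter luciferase reporter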
T5 sequence (P51843 whole entry): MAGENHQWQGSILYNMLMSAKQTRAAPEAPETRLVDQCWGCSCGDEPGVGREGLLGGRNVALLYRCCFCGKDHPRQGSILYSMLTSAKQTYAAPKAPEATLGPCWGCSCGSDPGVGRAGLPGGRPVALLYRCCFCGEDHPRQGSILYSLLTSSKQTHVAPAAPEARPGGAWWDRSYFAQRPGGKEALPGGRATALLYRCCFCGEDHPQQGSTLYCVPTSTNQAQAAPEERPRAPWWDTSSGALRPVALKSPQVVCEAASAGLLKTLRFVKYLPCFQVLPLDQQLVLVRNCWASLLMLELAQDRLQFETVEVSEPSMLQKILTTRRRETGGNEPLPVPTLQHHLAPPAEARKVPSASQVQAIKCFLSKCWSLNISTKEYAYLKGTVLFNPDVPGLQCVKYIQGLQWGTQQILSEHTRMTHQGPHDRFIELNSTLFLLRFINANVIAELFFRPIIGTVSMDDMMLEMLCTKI

[26] = cells; assay type: functional, cell-based
[27] = Luminescence Cell-Based Dose Retest to Confirm Inhibitors of Cancer Stem Cells. [Related pubchem assays (depositor defined):AID2717, AID2721]; assay type: functional; details: Homo sapiens

Sequence of DNA dC->dU-editing enzyme APOBEC-3A (P31941 whole entry): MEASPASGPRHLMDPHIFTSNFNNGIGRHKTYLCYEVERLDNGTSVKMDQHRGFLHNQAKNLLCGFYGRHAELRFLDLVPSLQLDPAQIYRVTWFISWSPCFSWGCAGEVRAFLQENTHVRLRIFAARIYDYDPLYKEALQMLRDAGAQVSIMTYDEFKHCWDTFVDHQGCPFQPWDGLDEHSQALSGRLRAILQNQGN

## COC(=O)C(C)Sc1nnc(S)s1 (configuration not stated)
[1]
  IC50: > 100 µM (inactive)
[2]
  IC50: 15.8 µM (active)

## CC(=O)n1cc([C@@H]2C=C(C(=O)N3CCN(Cc4ccc5c(c4)OCO5)CC3)O[C@H](OCCCCO)C2)c2ccccc21
[3]
  CC50: > 40 µM (active)

## COc1cccc(N2CCN(Cc3nc(N)nc(N4CCCc5ccccc54)n3)CC2)c1
[4]
  EC50: 76.1 µM (inactive)
[5]
  EC50: 92.4 µM (inactive)

## C=CCOC(=O)CCCCCCCC
[6]
  AC50: 79.4 µM (inconclusive)

## Cc1ccnc(Sc2ccc([N+](=O)[O-])cc2[N+](=O)[O-])n1
[7]
  EC50: > 180 µM (inactive)
[8]
  EC50: 0.91 µM (active)
[9]
  EC50: 14.2 µM (active)
[10]
  CC50: 7.25 µM (active)
[11]
  EC50: 23.6 µM (active)

## CC(C)CCn1c(N)c(C(=O)OCC2CCCO2)c2nc3ccccc3nc21 (configuration not stated)
[12]
  IC50: > 40 µM (not active)
[13]
  EC50: > 40 µM (inactive)

## NC(=O)c1c(NC(=O)c2ccc([N+](=O)[O-])o2)sc2c1CCCC2
[14]
  EC50: 13.3 µM (active)
[15]
  IC50: > 66.6 µM (inactive)
[16]
  EC50: 7.76 µM (active)
[17]
  EC50: 47.5 µM (active)

## COc1ccc(CN(C)C[C@H]2Oc3ccc(NC(=O)Nc4ccc(C(F)(F)F)cc4)cc3CC(=O)N([C@H](C)CO)C[C@H]2C)cc1
[18]
  AC50: 3.5 µM (active)

## CCn1c(=O)n(CC)c2cc(N3CCCC3)c(NC(=O)c3cc(Br)ccc3OC)cc21
[3]
  CC50: 37.6 µM (active)
[19]
  CC50: 16.4 µM (active)
[20]
  EC50: 7.36 µM (active)
[21]
  EC50: 18.5 µM (active)
[22]
  EC50: 12 µM (active)
[23]
  EC50: 0.99 µM (active)
[24]
  EC50: 11.2 µM (active)

## CNCC(O)c1ccc(O)c(O)c1 (configuration not stated) [RACEPINEPHRINE HYDROCHLORIDE]
[4]
  EC50: 1.39 µM (active)
[25]
  IC50: > 67.6 µM (inactive)
[6]
  AC50: 12.6 µM (inconclusive)
[26]
  IC50: > 67.6 µM (inactive)

## Cc1ccc(-c2cc(-c3ccccc3)nc(NN)n2)cc1
[12]
  IC50: 6.66 µM (active)
[27]
  AC50: 5.4 µM (active)
[13]
  EC50: > 40 µM (inactive)

From ChEMBL document CHEMBL1201862, “PubChem BioAssay data set” (2004)
